Experimental data from patent US8580813B2, “Cyclic azaindole-3-carboxamides, their preparation and their use as pharmaceuticals” (Sanofi, priority 2008, dated 2013).

Target: T1, Recombinant human renin (Homo sapiens, UniProt P00797)
T1 construct: purchased Cayman 10006217
T1 sequence (P00797 67-406): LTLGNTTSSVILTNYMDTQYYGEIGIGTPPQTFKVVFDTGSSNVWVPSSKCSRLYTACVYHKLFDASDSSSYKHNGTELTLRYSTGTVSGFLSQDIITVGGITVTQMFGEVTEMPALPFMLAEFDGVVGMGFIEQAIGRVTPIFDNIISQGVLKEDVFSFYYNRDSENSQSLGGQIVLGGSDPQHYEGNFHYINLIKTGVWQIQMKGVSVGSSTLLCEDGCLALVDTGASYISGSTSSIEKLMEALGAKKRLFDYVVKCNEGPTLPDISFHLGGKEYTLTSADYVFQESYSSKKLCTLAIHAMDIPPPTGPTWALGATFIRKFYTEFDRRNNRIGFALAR
Assay: Inhibition of renin (fluorogenic peptide substrate)
Type: biochemical
Settings: recombinant human renin 5 nM, substrate 10 μM, 2 h at room temperature, Tris buffer pH 8; compounds tested as the obtained salt
Description: M-2050; […] The increase in fluorescence, which is due to fluorescence resonance energy transfer, was recorded at an excitation wavelength of 330 nm and an emission wavelength of 485 nm in a microplate spectrofluorometer. Inhibitory concentrations IC50 were calculated from the percentage of inhibition of renin activity as a function of the concentration of the test compound. […] Representative IC50 values, which were determined with the compounds in the form of the obtained salt indicated in the examples above, are listed in table 8.

Row | Compound | IC50 [µM]
1 | Cc1ccccc1Oc1c(C(=O)N2CCNCC2)c2ncccc2n1-c1ccccc1 [Example 1, [1-Phenyl-2-(2-methyl-phenoxy)-1H-pyrrolo[3,2-b]pyridin-3-yl]-piperazin-1-yl-methanone] | 0.25
2 | Cc1ccccc1Cc1c(C(=O)N2CCNCC2)c2ncccc2n1-c1ccccc1 [Example 3, [2-(2-Methyl-benzyl)-1-phenyl-1H-pyrrolo[3,2-b]pyridin-3-yl]-piperazin-1-yl-methanone] | 0.12
3 | O=C(c1c(Cc2c(F)cccc2Cl)n(-c2ccccc2)c2ccncc12)N1CCNCC1 [Example 13, [2-(2-Chloro-6-fluoro-benzyl)-1-phenyl-1H-pyrrolo[3,2-c]pyridin-3-yl]-piperazin-1-yl-methanone] | 0.1
4 | COc1cc2c(C(=O)N3CCNCC3)c(Cc3cccc(F)c3C)n(-c3ccccc3)c2cn1 [Example 22, [2-(3-Fluoro-2-methyl-benzyl)-5-methoxy-1-phenyl-1H-pyrrolo[2,3-c]pyridin-3-yl]-piperazin-1-yl-methanone] | 0.85
5 | Cc1c(F)cccc1Cc1c(C(=O)N2CCNCC2)c2cccnc2n1-c1ccccc1 [Example 27, [2-(3-Fluoro-2-methyl-benzyl)-1-phenyl-1H-pyrrolo[2,3-b]pyridin-3-yl]-piperazin-1-yl-methanone] | 0.086
6 | Cc1c(F)cccc1Cc1c(C(=O)N2CCNCC2)c2cc(O)cnc2n1-c1ccccc1 [Example 31, [2-(3-Fluoro-2-methyl-benzyl)-5-hydroxy-1-phenyl-1H-pyrrolo[2,3-b]pyridin-3-yl]-piperazin-1-yl-methanone] | 0.0056
7 | Cc1ccc(F)c(C)c1Oc1c(C(=O)N2CCNCC2)c2ccncc2n1-c1ccccc1 [Example 37, [2-(3-Fluoro-2,6-dimethyl-phenoxy)-1-phenyl-1H-pyrrolo[2,3-c]pyridin-3-yl]-piperazin-1-yl-methanone] | 0.0017
8 | Cc1ccc(F)cc1Oc1c(C(=O)N2CCNCC2)c2ccnc(Cl)c2n1-c1ccccc1 [Example 38, [7-Chloro-2-(5-fluoro-2-methyl-phenoxy)-1-phenyl-1H-pyrrolo[2,3-c]pyridin-3-yl]-piperazin-1-yl-methanone] | 0.32
9 | Cc1c(F)cccc1Cc1nccc2c(C(=O)N3CCNCC3)c(Cc3cccc(F)c3C)n(-c3ccccc3)c12 [Example 40, [2,7-Bis-(3-fluoro-2-methyl-benzyl)-1-phenyl-1H-pyrrolo[2,3-c]pyridin-3-yl]-piperazin-1-yl-methanone] | 0.0051
10 | Cc1cccc(C)c1Oc1c(C(=O)N2CCNCC2)c2cnc(O)cc2n1C1CCCCC1 [Example 49, [1-Cyclohexyl-2-(2,6-dimethyl-phenoxy)-6-hydroxy-1H-pyrrolo[3,2-c]pyridin-3-yl]-piperazin-1-yl-methanone] | 0.08
11 | CC(c1ccccc1)c1c(C(=O)N2CCNCC2)c2ncccc2n1-c1ccccc1 (stereo not shown) [Example 50, [1-Phenyl-2-(1-phenyl-ethyl)-1H-pyrrolo[3,2-b]pyridin-3-yl]-piperazin-1-yl-methanone] | 1
12 | CCOc1cnc2c(C(=O)N3CCNCC3)c(Oc3c(C)cccc3C)n(-c3ccccc3)c2c1 [Example 54, [2-(2,6-Dimethyl-phenoxy)-6-ethoxy-1-phenyl-1H-pyrrolo[3,2-b]pyridin-3-yl]-piperazin-1-yl-methanone] | 0.077
13 | Cc1cccc(C)c1Oc1c(C(=O)N2CCNCC2)c2ncc(OCC(=O)O)cc2n1-c1ccccc1 [Example 57, [2-(2,6-Dimethyl-phenoxy)-1-phenyl-3-(piperazine-1-carbonyl)-1H-pyrrolo[3,2-b]pyridin-6-yloxy]-acetic acid] | 0.11
14 | COC(=O)CC1CN(C(=O)c2c(Oc3c(C)cccc3C)n(-c3ccccc3)c3cccnc23)CCN1 (stereo not shown) [Example 58, {4-[2-(2,6-Dimethyl-phenoxy)-1-phenyl-1H-pyrrolo[3,2-b]pyridine-3-carbonyl]-piperazin-2-yl}-acetic acid methyl ester] | 0.057
15 | CNC(=O)CC1CN(C(=O)c2c(Oc3c(C)cccc3C)n(-c3ccccc3)c3cccnc23)CCN1 (stereo not shown) [Example 59, 2-{4-[2-(2,6-Dimethyl-phenoxy)-1-phenyl-1H-pyrrolo[3,2-b]pyridine-3-carbonyl]-piperazin-2-yl}-N-methyl-acetamide] | 0.07
16 | COC[C@H]1CN(C(=O)c2c(Oc3c(C)cccc3C)n(-c3ccccc3)c3cccnc23)CCN1 [Example 89] | 0.29
17 | Cc1cccc(C)c1Oc1c(C(=O)N2CCN[C@@H](CC(C)C)C2)c2ncccc2n1-c1ccccc1 [Example 97] | 7
18 | Cc1cccc(C)c1Oc1c(C(=O)N2CCNCC2Cc2ccccc2)c2ncccc2n1-c1ccccc1 (stereo not shown) [Example 106] | 0.42
19 | Cc1c(F)cc(F)cc1Oc1c(C(=O)N2CCNCC2)c2ncccc2n1-c1ccccc1 [Example 111] | 0.65
20 | COc1cc2c(cn1)c(C(=O)N1CCN[C@@H](C)C1)c(Cc1cccc(F)c1C)n2C1CCCCC1 [Example 113] | 0.32
21 | Cc1c(F)cccc1Cc1c(C(=O)N2CCN[C@@H](CO)C2)c2cnc(O)cc2n1C1CCCCC1 [Example 116] | 1.1
22 | Cc1c(F)cccc1Oc1c(C(=O)N2CCNCC2)c2cccnc2n1-c1ccccc1 [Example 129] | 0.17
23 | CCCc1ccnc2c1c(C(=O)N1CCNCC1)c(Oc1cc(F)ccc1C)n2-c1ccccc1 [Example 133] | 1.85
24 | COc1ccc2c(C(=O)N3CCNCC3)c(Oc3c(C)cccc3C)n(-c3ccccc3)c2n1 [Example 134] | 0.003
25 | Cc1ccc(F)cc1Sc1c(C(=O)N2CCN[C@@H](C)C2)c2ncccc2n1-c1ccccc1 [Example 139, [2-(5-Fluoro-2-methyl-phenylsulfanyl)-1-phenyl-1H-pyrrolo[3,2-b]pyridin-3-yl]-((S)-3-methyl-piperazin-1-yl)-methanone] | 0.19
